From ChEMBL document CHEMBL3856245, “New labdane diterpenoids from Croton laui and their anti-inflammatory activities” (Bioorg Med Chem Lett, 2016)

Legend:
[1] = Antiinflammatory activity in mouse RAW264.7 cells assessed as inhibition of LPS-induced NO production after 24 hrs in presence of LPS by Griess reagent based assay; assay type: functional, cell-based; details: RAW264.7, 24 h
[2] = Cytotoxicity against mouse RAW264.7 cells assessed as reduction in cell viability after 48 hrs by MTT assay; assay type: toxicity
RAW264.7 = experiment: Selectivity index, ratio of CC50 for mouse RAW264.7 cells to antiinflammatory IC50 for mouse RAW264.7 cells; assay type: functional

Structure (SMILES) | IC50 [1] [µM] | CC50 at 48 h [2] [µM] | Ratio CC50/IC50 (RAW264.7)
C/C(=C\CO)[C@H]1C[C@@H]2[C@@]3(C)CCCC(C)(C)[C@@H]3C[C@H](O)[C@@]2(C)O1 | 42.7 | > 100 | >2.3
CC1=CC(=O)O[C@]12C[C@@H]1[C@@]3(C)CCCC(C)(C)[C@@H]3C[C@H](O)[C@@]1(C)O2 | 49.6 | > 100 | >2
C=C/C(C)=C/C[C@H]1[C@](C)(O)[C@@H](O)C[C@H]2C(C)(C)CCC[C@@]21C | 49.3 | 94.5 | 1.9
C/C(C=O)=C\C[C@H]1[C@](C)(O)[C@@H](O)C[C@H]2C(C)(C)CCC[C@@]21C | 93 | > 100 | >1.1
COc1ccc2c(c1)c(CC(=O)O)c(C)n2C(=O)c1ccc(Cl)cc1 [INDOMETHACIN] | 16.5 | > 200 | >12.1
CC1=CC(=O)O[C@@]12C[C@@H]1[C@@]3(C)CCCC(C)(C)[C@@H]3C[C@H](O)[C@@]1(C)O2 | 44.6 | > 100 | >2.2
